Reference: patent publication US20100272680A1, “Piperidinyl Cyclic Amido Antiviral Agents” (priority 2009, published 2010)

Experiments:
HCV Genotype 1A Replicon = test: Replicon assay, genotype 1a subgenomic replicon, luciferase readout; type: cell-based; conditions: Hepatitis C virus, 48 h, Table 3; luciferase activity after 48 hours
Experimental: (§1) Compounds were assayed for activity against HCV using the genotype 1a and 1b subgenomic replicon model systems. Stable cell lines bearing the genotype 1a and 1b replicons were used for screening of compounds. Both replicons are bicistonic and contain the firefly luciferase gene. The ET cell line is stably transfected with RNA transcripts harboring a I389luc-ubi-neo/NS3-3′/ET replicon with firefly luciferase-ubiquitin-neomycin phosphotransferase fusion protein and EMCV-IRES driven NS3-5B polyprotein containing the cell culture adaptive mutations (E1202G; T12801; K1846T) (Krieger at al, 2001 and unpublished). The genotype 1a replicon is a stable cell line licensed from Apath LLC, modified to contain the firefly luciferase gene. The cells were grown in DMEM, supplemented with 10% fetal calf serum, 2 mM Glutamine, Penicillin (100 IU/mL)/Streptomycin (100 μg/mL), 1× nonessential amino acids, and 250-500 μg/mL G418 (“Geneticin”). They were all available through Life Technologies (Bethesda, Md.). The cells were plated at 0.5×10^4 cells/well in 384 well plates containing compounds. The final concentration of compounds ranged between 0.03 μM to 50 μm and the final DMSO concentration of 0.5-1%.
(§2) Luciferase activity was measured 48 hours later by adding a Steady glo (Promega, Madison, Wis.). Percent inhibition of replication data was plotted relative to no compound control. Under the same condition, cytotoxicity of the compounds was determined using cell titer glo (Promega, Madison, Wis). IC50s were determined from a 10 point dose response curve using 3-4-fold serial dilution for each compound, which spans a concentration range >1000 fold. BioAssay determines the level of inhibition for each compound by normalizing cross-talk corrected plate values against the negative […] controls to determine Percent Inhibition:
(§3) These normalized values are exported to EC50 where they are plotted against the molar compound concentrations using the standard four parameter logistic equation: […]
(§4) Some EC50 measurements were repeated a second time and for both 1A and 1B genotypes after those reported in Table 2 for compounds 101-108 and the repeated data was reported in Table 3.

HCV Genotype 1B Replicon = test: Replicon assay, genotype 1b subgenomic replicon (ET cell line), luciferase readout; type: cell-based; conditions: Hepatitis C virus, 48 h, Table 3; luciferase activity after 48 hours
Experimental: as §1, §2, §3, §4

| Compound | EC50 (HCV Genotype 1A Replicon) [nM] | EC50 (HCV Genotype 1B Replicon) [nM] |
| --- | --- | --- |
| O=C1CN(C(=O)c2nc3c(C(F)(F)F)cc(C4CC4)cn3c2Cl)CC[C@@H]1N1CCOC1=O (stereo in doubt) [Compound 232, 1-{[3-chloro-6-cyclopropyl-8-(trifluoromethyl)imidazo[1,2-a]pyridin-2-yl]carbonyl}-4-(2-oxo-1,3-oxazolidin-3-yl)-3-piperidinone] | 60 | 80 |
| O=C(c1nc2c(C(F)(F)F)cccn2c1Cl)N1CCC(N2CCCC2=O)CC1 [Compound 109, 1-(1-{[3-chloro-8-(trifluoromethyl)imidazo[1,2-a]pyridin-2-yl]carbonyl}-4-piperidinyl)-2-pyrrolidinone] | 38000 | 28200 |
| O=C(c1nc2c(C(F)(F)F)cc(Cl)cn2c1Cl)N1CCC(N2CCCC2=O)CC1 [Compound 110, 1-(1-{[3,6-dichloro-8-(trifluoromethyl)imidazo[1,2-a]pyridin-2-yl]carbonyl}-4-piperidinyl)-2-pyrrolidinone] | 1740 | 800 |
| O=C(c1nc2c(C(F)(F)F)cccn2c1Cl)N1CCC(N2CCOC2=O)CC1 [Compound 111, 3-(1-{[3-chloro-8-(trifluoromethyl)imidazo[1,2-a]pyridin-2-yl]carbonyl}-4-piperidinyl)-1,3-oxazolidin-2-one] | ≥ 5010 | 11800 |
| O=C(c1nc2c(C(F)(F)F)cc(Cl)cn2c1Cl)N1CCC(N2CCOC2=O)CC1 [Compound 112, 3-(1-{[3,6-dichloro-8-(trifluoromethyl)imidazo[1,2-a]pyridin-2-yl]carbonyl)-4-piperidinyl)-1,3-oxazolidin-2-one] | 130 | 170 |
| O=C(c1nc2c(C(F)(F)F)cc(-c3ccncc3)cn2c1Cl)N1CCC(N2CCOC2=O)CC1 [Compound 113] | 740 | 9660 |
| O=C(c1nc2c(C(F)(F)F)cc(-c3cccc(F)c3)cn2c1Cl)N1CCC(N2CCOC2=O)CC1 [Compound 114] | 30 | 310 |
| O=C(c1nc2c(C(F)(F)F)cc(-c3ccc(F)cc3)cn2c1Cl)N1CCC(N2CCOC2=O)CC1 [Compound 115, 3-(1-{[3-chloro-6-(4-fluorophenyl)-8-(trifluoromethyl)imidazo[1,2-a]pyridin-2-yl]carbonyl}-4-piperidinyl)-1,3-oxazolidin-2-one] | 60 | 3690 |
| COc1ccccc1-c1cc(C(F)(F)F)c2nc(C(=O)N3CCC(N4CCOC4=O)CC3)c(Cl)n2c1 [Compound 116] | 360 | 7410 |
| COc1cccc(-c2cc(C(F)(F)F)c3nc(C(=O)N4CCC(N5CCOC5=O)CC4)c(Cl)n3c2)c1 [Compound 117] | 470 | 2540 |
| COc1ccc(-c2cc(C(F)(F)F)c3nc(C(=O)N4CCC(N5CCOC5=O)CC4)c(Cl)n3c2)cc1 [Compound 118] | 150 | 17600 |
| O=C(c1nc2c(C(F)(F)F)cc(-c3ccsc3)cn2c1Cl)N1CCC(N2CCOC2=O)CC1 [Compound 119] | 10 | 50 |
| O=C(c1nc2c(C(F)(F)F)cc(-c3cccc4cccnc34)cn2c1Cl)N1CCC(N2CCOC2=O)CC1 [Compound 120] | 290 | 36000 |
| O=C(c1nc2c(C(F)(F)F)cc(-c3ccccc3O)cn2c1Cl)N1CCC(N2CCOC2=O)CC1 [Compound 121] | 440 | 2850 |
| O=C(c1nc2c(C(F)(F)F)cc(-c3cccc(O)c3)cn2c1Cl)N1CCC(N2CCOC2=O)CC1 [Compound 122] | 2340 | 15800 |
| O=C(c1nc2c(C(F)(F)F)cc(-c3ccc(O)cc3)cn2c1Cl)N1CCC(N2CCOC2=O)CC1 [Compound 123] | 30 | 380 |
| Cn1cc(-c2cc(C(F)(F)F)c3nc(C(=O)N4CCC(N5CCOC5=O)CC4)c(Cl)n3c2)cn1 [Compound 124] | 30 | 3470 |
| CCn1cc(-c2cc(C(F)(F)F)c3nc(C(=O)N4CCC(N5CCOC5=O)CC4)c(Cl)n3c2)cn1 [Compound 125] | 90 | 13300 |
| CC(C)Cn1cc(-c2cc(C(F)(F)F)c3nc(C(=O)N4CCC(N5CCOC5=O)CC4)c(Cl)n3c2)cn1 [Compound 126, 3-(1-{[3-chloro-6-[1-(2-methylpropyl)-1H-pyrazol-4-yl]-8-(trifluoromethyl)imidazo[1,2-a]pyridin-2-yl]carbonyl}-4-piperidinyl)-1,3-oxazolidin-2-one] | 13600 | ≥ 50100 |
| O=C(c1nc2c(C(F)(F)F)cc(C3CCCC3)cn2c1Cl)N1CCC(N2CCOC2=O)CC1 [Compound 127, 3-(1-{[3-chloro-6-cyclopentyl-8-(trifluoromethyl)imidazo[1,2-a]pyridin-2-yl]carbonyl}-4-piperidinyl)-1,3-oxazolidin-2-one] | 10 | 170 |
| O=C(c1nc2c(C(F)(F)F)cc(C3CCC3)cn2c1Cl)N1CCC(N2CCOC2=O)CC1 [Compound 128, 3-(1-{[3-chloro-6-cyclobutyl-8-(trifluoromethyl)imidazo[1,2-a]pyridin-2-yl]carbonyl}-4-piperidinyl)-1,3-oxazolidin-2-one] | 10 | 30 |
| CCCc1cc(C(F)(F)F)c2nc(C(=O)N3CCC(N4CCOC4=O)CC3)c(Cl)n2c1 [Compound 129, 3-(1-{[3-chloro-6-propyl-8-(trifluoromethyl)imidazo[1,2-a]pyridin-2-yl]carbonyl}-4-piperidinyl)-1,3-oxazolidin-2-one] | 20 | 120 |
| CC(C)Cc1cc(C(F)(F)F)c2nc(C(=O)N3CCC(N4CCOC4=O)CC3)c(Cl)n2c1 [Compound 130, 3-(1-{[3-chloro-6-(2-methylpropyl)-8-(trifluoromethyl)imidazo[1,2-a]pyridin-2-yl]carbonyl}-4-piperidinyl)-1,3-oxazolidin-2-one] | 20 | 50 |
| CCCCc1cc(C(F)(F)F)c2nc(C(=O)N3CCC(N4CCOC4=O)CC3)c(Cl)n2c1 [Compound 131] | 10 | 700 |
| COc1cc(C(F)(F)F)c2nc(C(=O)N3CCC(N4CCOC4=O)CC3)c(Cl)n2c1 [Compound 132, 3-(1-{[3-chloro-6-(methyloxy)-8-(trifluoromethyl)imidazo[1,2-a]pyridin-2-yl]carbonyl}-4-piperidinyl)-1,3-oxazolidin-2-one] | 130 | 210 |
| Cc1ccc(-c2cc(C(F)(F)F)c3nc(C(=O)N4CCC(N5CCOC5=O)CC4)c(Cl)n3c2)o1 [Compound 133] | 110 | 3720 |
| O=C(c1nc2c(C(F)(F)F)cc(C3CCCO3)cn2c1Cl)N1CCC(N2CCOC2=O)CC1 (centres unmarked) [Compound 134, 3-(1-{[3-chloro-6-(tetrahydro-2-furanyl)-8-(trifluoromethyl)imidazo[1,2-a]pyridin-2-yl]carbonyl}-4-piperidinyl)-1,3-oxazolidin-2-one] | 320 | 2190 |
| CCOc1cc(C(F)(F)F)c2nc(C(=O)N3CCC(N4CCOC4=O)CC3)c(Cl)n2c1 [Compound 135, 3-(1-{[3-chloro-6-(ethyloxy)-8-(trifluoromethyl)imidazo[1,2-a]pyridin-2-yl]carbonyl}-4-piperidinyl)-1,3-oxazolidin-2-one] | 70 | 220 |
